In PMC12845078 (Pharmaceuticals, 2025):

What was measured:
[1] = target: T1, CYP enzymes involved in melatonin 6-hydroxylation (Rattus norvegicus, UniProt P04799); assay: Competitive inhibition of CBD on MT 6-hydroxylation, rat liver microsomes; format: in vitro ADME; conditions: probe melatonin (MT) 1 μM, 6-hydroxylation to 6-HMT
T1 sequence (P04799 2-513): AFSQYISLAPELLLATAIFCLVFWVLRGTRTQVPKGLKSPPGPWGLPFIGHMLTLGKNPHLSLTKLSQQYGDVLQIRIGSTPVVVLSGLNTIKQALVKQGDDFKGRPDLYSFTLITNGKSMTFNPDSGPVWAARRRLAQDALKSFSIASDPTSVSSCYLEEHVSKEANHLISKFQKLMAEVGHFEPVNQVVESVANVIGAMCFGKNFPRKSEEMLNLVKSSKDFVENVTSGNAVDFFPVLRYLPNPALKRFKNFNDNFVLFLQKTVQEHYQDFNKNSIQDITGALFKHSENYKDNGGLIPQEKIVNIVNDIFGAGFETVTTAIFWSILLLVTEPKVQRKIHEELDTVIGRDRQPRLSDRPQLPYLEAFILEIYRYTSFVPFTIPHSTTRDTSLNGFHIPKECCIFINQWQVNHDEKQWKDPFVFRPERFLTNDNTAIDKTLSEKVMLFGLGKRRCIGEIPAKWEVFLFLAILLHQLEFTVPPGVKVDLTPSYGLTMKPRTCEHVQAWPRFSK
Experimental: (§1) The final incubation system contained 100 mM PBS, 5 mM MgCl2, 0.5 mg/mL liver microsomal protein, and 1 mM NADPH. […] The final concentration of MT was 1 μM.

[2] = tested on: CYP enzymes of MT 6-hydroxylation; assay: in vitro; conditions: beagle, dog, liver microsomes, probe melatonin (MT) 2 μM, 6-hydroxylation to 6-HMT, IC50 Ratio (IC50 shift), DLM, 30 min pre-incubation with/without NADPH
Experimental: (§4) The reaction was initiated by adding pre-warmed NADPH (control groups lacked NADPH). The final incubation mixture contained 100 mM PBS, 5 mM MgCl2, liver microsomes (0.5 mg/mL), 1 mM NADPH, and 0.2% BSA. […] Concentrations in beagle dog microsomal incubations were 0, 0.125, 0.25, 0.5, 1, 2, 4, 8, 16, and 32 μM. […] All samples were prepared in triplicate. The concentration of 6-HMT was quantified using LC-MS/MS.
(§5) Competitive inhibition and time-dependent inhibition assays: The production of 6-HMT without inhibitors was set as 100%.

[3] = tested on: CYP1A2-mediated metabolism of MT; conditions: cited from earlier work
[4] = target: T2, CYP enzymes involved in melatonin 6-hydroxylation (Homo sapiens, UniProt P05177); assay: Competitive inhibition of CBD on MT 6-hydroxylation, human liver microsomes; format: in vitro ADME; conditions: human, liver microsomes, probe melatonin (MT) 1 μM, 6-hydroxylation to 6-HMT
T2 construct: tissue XenoTech; host or cells: human liver microsomes
T2 sequence (P05177 1-516): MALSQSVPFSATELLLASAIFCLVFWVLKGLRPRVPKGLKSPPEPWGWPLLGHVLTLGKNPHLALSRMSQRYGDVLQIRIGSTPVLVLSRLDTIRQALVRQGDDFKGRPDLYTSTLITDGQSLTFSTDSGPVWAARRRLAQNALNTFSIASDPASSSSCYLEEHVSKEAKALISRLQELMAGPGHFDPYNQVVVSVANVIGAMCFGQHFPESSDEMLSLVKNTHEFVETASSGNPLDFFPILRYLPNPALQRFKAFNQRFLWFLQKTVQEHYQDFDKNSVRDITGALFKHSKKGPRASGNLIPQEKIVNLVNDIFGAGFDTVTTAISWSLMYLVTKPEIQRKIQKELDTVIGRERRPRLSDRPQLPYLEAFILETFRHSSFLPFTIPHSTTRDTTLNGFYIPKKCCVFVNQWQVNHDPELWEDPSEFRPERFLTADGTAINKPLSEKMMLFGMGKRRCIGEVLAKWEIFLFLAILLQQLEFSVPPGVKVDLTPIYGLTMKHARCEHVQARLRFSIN
Experimental: as §1

[5] = target: T3, CYP enzymes involved in melatonin 6-hydroxylation, human liver microsomes (Homo sapiens, UniProt P05177); assay: as above; format: in vitro ADME
T3 construct: tissue XenoTech; host or cells: human liver microsomes
T3 sequence (P05177 1-516): T2 sequence (P05177 1-516)
Experimental: as §1

[6] = tested on: CYP enzymes of MT 6-hydroxylation; assay: in vitro; conditions: human, liver microsomes, probe melatonin (MT) 2 μM, 6-hydroxylation to 6-HMT, IC50 Ratio (IC50 shift), HLM, 30 min pre-incubation with/without NADPH
Experimental: as §4, §5

[7] = target: T4, CYP1A2 (CYP enzymes mediating MT 6-hydroxylation) (Homo sapiens, UniProt P05177); assay: Irreversible (mechanism-based) inhibition of CBD on MT 6-hydroxylation, human liver microsomes; format: in vitro ADME; conditions: probe melatonin (MT) 200 µM, 6-hydroxylation to 6-HMT
T4 construct: tissue XenoTech; host or cells: human liver microsomes
T4 sequence (P05177 1-516): T2 sequence (P05177 1-516)
Experimental: (§2) The reaction was initiated by adding the NADPH working solution that had also been pre-incubated for 5 min. […] After pre-incubation for different durations (0, 5, 10, 20, 30 min), 10 μL of the incubation mixture were transferred to a secondary incubation system containing 148 μL PBS and 2 μL MT working solution (final MT concentration: 200 μM). An additional 40 μL of NADPH were added, and the mixture was incubated for 30 min.
(§3) Irreversible inhibition assays: A semi-logarithmic curve was generated by plotting residual enzyme activity against pre-incubation time. The observed CYP enzyme inactivation rate (Kobs) was derived from the initial slope of the linear regression. The Lineweaver-Burk double reciprocal curve (1/Kobs vs. 1/I) described by Formula (8) was used to determine KI and Kinact: Kinact was estimated from the reciprocal of the Y-intercept, and KI was obtained from the negative reciprocal of the X-intercept.(8) 1/k=KI/Kinact1/I+1/Kinact

[8] = target: T5, CYP enzymes mediating MT 6-hydroxylation in human liver microsomes (CYP1A2) (Homo sapiens, UniProt P05177); assay: as above; format: in vitro ADME
T5 construct: tissue XenoTech; host or cells: human liver microsomes
T5 sequence (P05177 1-516): T2 sequence (P05177 1-516)
Experimental: as §2, §3

[9] = tested on: CYP enzymes of MT 6-hydroxylation; assay: in vitro; conditions: rat, liver microsomes, probe melatonin (MT) 2 μM, 6-hydroxylation to 6-HMT, IC50 Ratio (IC50 shift), RLM, 30 min pre-incubation with/without NADPH
Experimental: as §4, §5

[10] = read-out: Km of MT 6-hydroxylation; HLM
in vitro [11] = conditions: human, liver microsomes, Km of MT 6-hydroxylation, HLM
[12] = tested on: liver microsomes from different species; assay: Effect of MT on in vitro metabolism of CBD in liver microsomes; format: in vitro ADME, human, rat, beagle; conditions: CBD 1 μM, MT up to 32 μM
Experimental: The reaction was initiated by adding pre-incubated NADPH. The system contained liver microsomes at 0.5 mg/mL and NADPH at 1 mM (both diluted in PBS containing MgCl2). […] All samples were prepared in triplicate. The content of CBD was determined by LC-MS/MS.

[13] = tested on: CYP1A2-mediated metabolism of MT; assay: Static DDI model prediction of CBD's impact on MT exposure, human; conditions: input of static DDI model
Description: (AUC when co-administered with the inhibitor) to AUC[contr] (AUC without the inhibitor).

in vitro [14] = conditions: rat, liver microsomes

| SMILES | IC50 at 30 min ([1]; human, IC50, inhibition of MT 6-hydroxylation, hepatic microsomes of other species (not beagle)) [µM] | IC50 at 30 min ([1]; IC50, inhibition of MT 6-hydroxylation, RLM, MT 1 μM) [µM] | IC50 at 30 min ([1]; IC50, rat, as listed in Table 6 for static DDI model) [µM] | IC50 shift at 30 min [2] | [I]h (estimated free concentration in liver) ([3]; human, CBD dose 2000 mg) [µM] | [I]h, concentration adopted for human ([3]; oral administration of 2000 mg CBD) [µM] | IC50 at 30 min [4] [µM] | IC50 [5] [µM] | IC50 shift at 30 min [6] | Ki ([7]; human, liver microsomes) [µM] | kinact ([7]; human liver microsomes) [s⁻¹] | Ki [8] [µM] | IC50 shift at 30 min [9] | Km [10] [µM] | Km at 15 min (in vitro [11]) [µM] | competitive inhibition of CBD metabolism by MT [12] | fm(CYP1A2), proportion of MT metabolized by CYP1A2 [13] | Km at 15 min (in vitro [14]) [µM] |
| --- | --- | --- | --- | --- | --- | --- | --- | --- | --- | --- | --- | --- | --- | --- | --- | --- | --- | --- |
| C=C(C)[C@@H]1CCC(C)=C[C@H]1c1c(O)cc(CCCCC)cc1O [CBD, Cannabidiol] | 13.5 to 36.5 | 13.5 ± 1.15 | 9.51 | 1.27 | 3.55 | 3.55 | 3.39 | 16.5 ± 4.23 | 2.55 | 0.0187 | 0.00105 | 25.6 | 1.81 | – | – | – | – | – |
| COc1ccc2[nH]cc(CCNC(C)=O)c2c1 [MT, Melatonin] | – | – | – | – | – | – | – | – | – | – | – | – | – | 165 | 165 | does not exert competitive inhibition on CBD | 0.92 | 147 |
